Assay results: patent publication US3948899A, “α-Cyanobenzylpiperazines and a process for producing the same” (Fuji Chemical Industry Co., Ltd., priority 1973, dated 1976)
Where a name gives a salt, the structure may show the parent alone.

Columns and labels:
[1] = system: mongrel adult dogs; experiment: Effects on heart rate (thoractomized anesthetized dogs, i.v.); assay type: in vivo, dog
Protocol: (§1) All experiments were conducted on male and female thoractomized mongrel adult dogs weighing about 10 Kg under anesthesia with pentobarbital sodium.
(§2) Arterial blood pressure was measured by pressure transducer (Nippon Koden MPU-0.5) connected with the cannula inserted from exposed carotid artery into aorta. Aortic blood flow was determined by means of electromagnetic flow meter (Nippon Koden MF-5) mounted at an origin of aorta. Coronary sinus out flow and coronary sinus oxygen tension were assessed by means of electromagnetic flow meter (Nippon Koden MF-5) and Po2 Macro electrode (Beckmann Moder 160-C), respectively, using Morawitz cannulization technique. Heart rate was measured by cardiotachometer (Nippon Koden RT-2) synchronized with systolic blood pressure of aorta.

[2] = Acute toxicity (LD50; per os, mice); assay type: in vivo; conditions: mouse, in vivo, po, dd-0train male mice
Protocol: 7. Acute Toxicity (See Table 7) Acute toxicity (LD50; per os, mice) was measured in dd-0train male mice.

[3] = system: mongrel adult dogs; experiment: Effects on coronary sinus oxygen tension (thoractomized anesthetized dogs, i.v.); assay type: in vivo, dog
Protocol: as §1, §2

[4] = prior art; cited from earlier work
[5] = system: mongrel adult dogs; experiment: Effects on aortic blood flow (thoractomized anesthetized dogs, i.v.); assay type: in vivo, dog
Protocol: as §1, §2

COc1ccc(CN2CCNCC2)c(OC)c1OC [Vastarel F, 2,3,4 -trimethoxybenzylpiperazine dihydrochloride]
Changes(%) of basal values, heart rate ([1]; i.v. 0.2 mg/Kg, 5 min): -1.5% | Changes(%) of basal values, heart rate ([1]; i.v. 0.2 mg/Kg, 10 min): -1.0% | Changes(%) of basal values, heart rate ([1]; i.v. 0.2 mg/Kg, 15 min): 0% | Changes(%) of basal values, heart rate ([1]; i.v. 0.2 mg/Kg, 20 min): 0% | Changes(%) of basal values, heart rate ([1]; i.v. 0.2 mg/Kg, 25 min): 0% | Changes(%) of basal values, heart rate ([1]; i.v. 0.2 mg/Kg, 30 min): 0% | Changes(%) of basal values, heart rate ([1]; i.v. 0.2 mg/Kg, imm.): +1.5% | Changes(%) of basal values, heart rate ([1]; i.v. 0.6 mg/Kg, 1 min): +0.5% | Changes(%) of basal values, heart rate ([1]; i.v. 0.6 mg/Kg, 5 min): +0.5% | Changes(%) of basal values, heart rate ([1]; i.v. 0.6 mg/Kg, 10 min): 0% | Changes(%) of basal values, heart rate ([1]; i.v. 0.6 mg/Kg, 15 min): -1.0% | Changes(%) of basal values, heart rate ([1]; i.v. 0.6 mg/Kg, 20 min): -1.0% | Changes(%) of basal values, heart rate ([1]; i.v. 0.6 mg/Kg, 25 min): -1.0% | Changes(%) of basal values, heart rate ([1]; i.v. 0.6 mg/Kg, 30 min): 0% | Changes(%) of basal values, heart rate ([1]; i.v. 0.6 mg/Kg, imm.): +1.5% | Changes(%) of basal values, heart rate ([1]; i.v. 2.0 mg/Kg, 1 min): -2.0% | Changes(%) of basal values, heart rate ([1]; i.v. 2.0 mg/Kg, 5 min): -2.0% | Changes(%) of basal values, heart rate ([1]; i.v. 2.0 mg/Kg, 10 min): -1.5% | Changes(%) of basal values, heart rate ([1]; i.v. 2.0 mg/Kg, 15 min): -1.0% | Changes(%) of basal values, heart rate ([1]; i.v. 2.0 mg/Kg, 20 min): -1.5% | Changes(%) of basal values, heart rate ([1]; i.v. 2.0 mg/Kg, 25 min): -1.0% | Changes(%) of basal values, heart rate ([1]; i.v. 2.0 mg/Kg, 30 min): -1.5% | Changes(%) of basal values, heart rate ([1]; i.v. 2.0 mg/Kg, imm.): +5.5% | LD50 [2]: 960 mg/kg | Changes(%) of basal values, coronary sinus oxygen tension ([3]; i.v. 0.2 mg/Kg, 1 min): +1.0% | Changes(%) of basal values, coronary sinus oxygen tension ([3]; i.v. 0.2 mg/Kg, 5 min): 0% | Changes(%) of basal values, coronary sinus oxygen tension ([3]; i.v. 0.2 mg/Kg, 10 min): 0% | Changes(%) of basal values, coronary sinus oxygen tension ([3]; i.v. 0.2 mg/Kg, 15 min): 0% | Changes(%) of basal values, coronary sinus oxygen tension ([3]; i.v. 0.2 mg/Kg, 20 min): 0% | Changes(%) of basal values, coronary sinus oxygen tension ([3]; i.v. 0.2 mg/Kg, 25 min): 0% | Changes(%) of basal values, coronary sinus oxygen tension ([3]; i.v. 0.2 mg/Kg, 30 min): 0% | Changes(%) of basal values, coronary sinus oxygen tension ([3]; i.v. 0.2 mg/Kg, imm.): +3.0% | Changes(%) of basal values, coronary sinus oxygen tension ([3]; i.v. 0.6 mg/Kg, 1 min): +5.5% | Changes(%) of basal values, coronary sinus oxygen tension ([3]; i.v. 0.6 mg/Kg, 5 min): +1.0% | Changes(%) of basal values, coronary sinus oxygen tension ([3]; i.v. 0.6 mg/Kg, 10 min): 0% | Changes(%) of basal values, coronary sinus oxygen tension ([3]; i.v. 0.6 mg/Kg, 15 min): 0% | Changes(%) of basal values, coronary sinus oxygen tension ([3]; i.v. 0.6 mg/Kg, 20 min): 0% | Changes(%) of basal values, coronary sinus oxygen tension ([3]; i.v. 0.6 mg/Kg, 25 min): 0% | Changes(%) of basal values, coronary sinus oxygen tension ([3]; i.v. 0.6 mg/Kg, 30 min): 0% | Changes(%) of basal values, coronary sinus oxygen tension ([3]; i.v. 0.6 mg/Kg, imm.): +9.0% | Changes(%) of basal values, coronary sinus oxygen tension ([3]; i.v. 2.0 mg/Kg, 1 min): +1.5% | Changes(%) of basal values, coronary sinus oxygen tension ([3]; i.v. 2.0 mg/Kg, 5 min): +2.0% | Changes(%) of basal values, coronary sinus oxygen tension ([3]; i.v. 2.0 mg/Kg, 10 min): +5.0% | Changes(%) of basal values, coronary sinus oxygen tension ([3]; i.v. 2.0 mg/Kg, 15 min): +5.0% | Changes(%) of basal values, coronary sinus oxygen tension ([3]; i.v. 2.0 mg/Kg, 20 min): +3.0% | Changes(%) of basal values, coronary sinus oxygen tension ([3]; i.v. 2.0 mg/Kg, 25 min): +0.5% | Changes(%) of basal values, coronary sinus oxygen tension ([3]; i.v. 2.0 mg/Kg, 30 min): 0% | Changes(%) of basal values, coronary sinus oxygen tension ([3]; i.v. 2.0 mg/Kg, imm.): +3.0% | Increase in oxygen tension ([3]; i.v., between 5 and 20 minutes): up to 5% | Effect on the heart, disadvantage (in words) [4]: depressant effect on the heart | Changes(%) of basal values, aortic blood flow ([5]; i.v. 0.2 mg/Kg, 1 min): 0% | Changes(%) of basal values, aortic blood flow ([5]; i.v. 0.2 mg/Kg, 5 min): 0% | Changes(%) of basal values, aortic blood flow ([5]; i.v. 0.2 mg/Kg, 10 min): 0% | Changes(%) of basal values, aortic blood flow ([5]; i.v. 0.2 mg/Kg, 15 min): 0% | Changes(%) of basal values, aortic blood flow ([5]; i.v. 0.2 mg/Kg, 20 min): 0% | Changes(%) of basal values, aortic blood flow ([5]; i.v. 0.2 mg/Kg, 25 min): 0% | Changes(%) of basal values, aortic blood flow ([5]; i.v. 0.2 mg/Kg, 30 min): 0% | Changes(%) of basal values, aortic blood flow ([5]; i.v. 0.2 mg/Kg, imm.): 0% | Changes(%) of basal values, aortic blood flow ([5]; i.v. 0.6 mg/Kg, 1 min): +0.5% | Changes(%) of basal values, aortic blood flow ([5]; i.v. 0.6 mg/Kg, 5 min): 0% | Changes(%) of basal values, aortic blood flow ([5]; i.v. 0.6 mg/Kg, 10 min): -1.0% | Changes(%) of basal values, aortic blood flow ([5]; i.v. 0.6 mg/Kg, 15 min): -1.0% | Changes(%) of basal values, aortic blood flow ([5]; i.v. 0.6 mg/Kg, 20 min): -1.0% | Changes(%) of basal values, aortic blood flow ([5]; i.v. 0.6 mg/Kg, 25 min): -1.5% | Changes(%) of basal values, aortic blood flow ([5]; i.v. 0.6 mg/Kg, 30 min): 0% | Changes(%) of basal values, aortic blood flow ([5]; i.v. 0.6 mg/Kg, imm.): +1.5% | Changes(%) of basal values, aortic blood flow ([5]; i.v. 2.0 mg/Kg, 1 min): 0% | Changes(%) of basal values, aortic blood flow ([5]; i.v. 2.0 mg/Kg, 5 min): +11.0% | Changes(%) of basal values, aortic blood flow ([5]; i.v. 2.0 mg/Kg, 10 min): +23.0% | Changes(%) of basal values, aortic blood flow ([5]; i.v. 2.0 mg/Kg, 15 min): +10.0% | Changes(%) of basal values, aortic blood flow ([5]; i.v. 2.0 mg/Kg, 20 min): +5.0% | Changes(%) of basal values, aortic blood flow ([5]; i.v. 2.0 mg/Kg, 25 min): +6.0% | Changes(%) of basal values, aortic blood flow ([5]; i.v. 2.0 mg/Kg, 30 min): +5.0% | Changes(%) of basal values, aortic blood flow ([5]; i.v. 2.0 mg/Kg, imm.): -78.0%
